Assay results from patent US10131702B2, “Glucagon-GLP-1-GIP triple agonist compounds” (priority 2013, dated 2018).
Where two headings read alike, the source gives them in different places. Peptide text beside a SMILES is read from it.

Experiments:
Assay type in all cases: cell-based
[1] = target: T1, human GIP R (Homo sapiens, UniProt P48546); assay: cAMP induction in HEK293 cells expressing human GIP R (AlphaScreen cAMP kit)
T1 construct: expressed in transfected cells
T1 sequence (P48546 22-466): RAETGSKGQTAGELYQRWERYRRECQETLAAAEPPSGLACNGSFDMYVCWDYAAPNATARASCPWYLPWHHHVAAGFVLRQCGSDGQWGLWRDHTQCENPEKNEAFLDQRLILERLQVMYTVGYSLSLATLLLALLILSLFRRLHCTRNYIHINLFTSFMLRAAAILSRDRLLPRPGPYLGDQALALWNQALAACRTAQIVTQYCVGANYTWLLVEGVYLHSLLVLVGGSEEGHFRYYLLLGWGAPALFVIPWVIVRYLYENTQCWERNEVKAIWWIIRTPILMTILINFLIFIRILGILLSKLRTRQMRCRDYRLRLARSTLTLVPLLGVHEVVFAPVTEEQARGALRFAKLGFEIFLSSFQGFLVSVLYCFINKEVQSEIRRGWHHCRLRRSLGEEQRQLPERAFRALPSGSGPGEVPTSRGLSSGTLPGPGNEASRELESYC

[2] = target: T2, human GLP-1 R (Homo sapiens, UniProt P43220); assay: cAMP induction in HEK293 cells expressing human GLP-1 R (AlphaScreen cAMP kit)
T2 construct: expressed in transfected cells
T2 sequence (P43220 24-463): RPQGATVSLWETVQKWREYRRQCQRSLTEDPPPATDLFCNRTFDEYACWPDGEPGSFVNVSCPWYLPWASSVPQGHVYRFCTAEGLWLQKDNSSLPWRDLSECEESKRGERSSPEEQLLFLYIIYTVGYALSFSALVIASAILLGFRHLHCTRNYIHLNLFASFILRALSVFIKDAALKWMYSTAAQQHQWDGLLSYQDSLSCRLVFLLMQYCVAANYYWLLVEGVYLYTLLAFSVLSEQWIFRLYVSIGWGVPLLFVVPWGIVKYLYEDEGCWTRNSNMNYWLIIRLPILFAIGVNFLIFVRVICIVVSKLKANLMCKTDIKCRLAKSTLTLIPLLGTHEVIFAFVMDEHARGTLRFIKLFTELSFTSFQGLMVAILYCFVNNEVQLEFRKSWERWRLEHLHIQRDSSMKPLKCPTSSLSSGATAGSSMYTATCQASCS
Procedure: (§1) Briefly, HEK293 cells expressing the human GIP R, GLP-1 R or GCG R (stable cell lines generated through transfection of the cDNA for human GIP R, GLP-1 R or GCG R and selection of stable clones) were seeded at 30,000 cells/well in 96-well microtiter plates coated with 0.01% poly-L-lysine, and grown for 1 day in culture in 200 μl growth medium (DMEM, 10% FCS, Penicillin (100 IU/ml), Streptomycin (100 μg/ml)). On the day of analysis, growth medium was removed and the cells were washed once with 150 μl Tyrode's buffer (Tyrode's Salts (9.6 g/l), 10 mM HEPES, pH 7.4). […] The Assay buffer was removed and cells are lysed in 80 μl Lysis buffer (0.1% w/v BSA, 5 mM HEPES, 0.3% v/v Tween-20) per well. From each well 10 μl of lysed cells were transferred to a 384-well plate and mixed with 15 μl bead-mix (1 Unit/15 μl anti-cAMP Acceptor Beads, 1 Unit/15 μl Donor Beads, and 1 Unit/15 μl Biotinylated cAMP in Assay Buffer). The plates were mixed and incubated in the dark for an hour at room temperature before measuring using an Envision™ plate reader (Perkin-Elmer).
(§2) The resulting cAMP curves were plotted as absolute cAMP concentrations (nM) over log (test compound concentration) and analyzed using the curve fitting program XLfit.
(§3) Parameters calculated to describe both the potency as well as the agonistic activity of each test compound on the receptors were:
(§4) EC50, a concentration resulting in a half-maximal elevation of cAMP levels, reflecting the potency of the test compound.

[3] = target: T3, human GCG R (Homo sapiens, UniProt P47871); assay: cAMP induction in HEK293 cells expressing human GCG R (AlphaScreen cAMP kit)
T3 construct: expressed in transfected cells
T3 sequence (P47871 26-477): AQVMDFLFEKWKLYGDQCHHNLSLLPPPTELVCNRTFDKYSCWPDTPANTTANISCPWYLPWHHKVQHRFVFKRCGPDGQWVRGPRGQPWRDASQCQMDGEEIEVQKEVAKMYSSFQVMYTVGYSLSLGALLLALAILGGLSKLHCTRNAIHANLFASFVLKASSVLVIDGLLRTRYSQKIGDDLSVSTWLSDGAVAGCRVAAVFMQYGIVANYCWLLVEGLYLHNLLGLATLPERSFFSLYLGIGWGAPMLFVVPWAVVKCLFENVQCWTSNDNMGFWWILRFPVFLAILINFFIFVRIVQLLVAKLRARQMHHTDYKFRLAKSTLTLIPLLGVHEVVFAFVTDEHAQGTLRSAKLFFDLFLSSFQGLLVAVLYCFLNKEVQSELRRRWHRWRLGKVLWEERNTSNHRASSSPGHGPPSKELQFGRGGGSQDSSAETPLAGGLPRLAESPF
Procedure: as §1, §2, §3, §4

[4] = GIP R (EC50 in nM), Table 2, average EC50, cAMP
[5] = GIP R (EC50 in nM), Table 2b (most comprehensive data), average EC50, cAMP
[6] = Table 2, average EC50, cAMP, HEK293 cells expressing human GLP-1 R, read-out: GLP1 R (EC50 in nM)
[7] = Table 2, average EC50, cAMP, read-out: GIP R (EC50 in nM)
[8] = Table 2b (most comprehensive data), average EC50, cAMP, read-out: GIP R (EC50 in nM)
[9] = Table 2b (most comprehensive data), average EC50, cAMP, HEK293 cells expressing human GLP-1 R, read-out: GLP1 R (EC50 in nM)
[10] = Table 2, average EC50, cAMP, HEK293 cells expressing human GCG R, read-out: GCG R (EC50 in nM)

Compound	EC50 [1, 4]	EC50 [1, 5]	EC50 [2, 6]	EC50 [3]	EC50 [1, 7]	EC50 [1, 8]	EC50 [2]	EC50 [2, 9]	EC50 [3, 10]	EC50 ([3]; Table 2b (most comprehensive data), average EC50, cAMP, HEK293 cells expressing human GCG R, read-out: GCG R (EC50 in nM))
CC[C@H](C)[C@H](NC(=O)[C@H](CO)NC(=O)[C@H](Cc1ccc(O)cc1)NC(=O)[C@H](CC(=O)O)NC(=O)[C@H](CO)NC(=O)[C@@H](NC(=O)[C@H](Cc1ccccc1)NC(=O)[C@@H](NC(=O)CNC(=O)[C@H](CCC(N)=O)NC(=O)C(C)(C)NC(=O)[C@@H](N)Cc1ccc(O)cc1)[C@@H](C)O)[C@@H](C)O)C(=O)N[C@@H](Cc1ccc(O)cc1)C(=O)N[C@@H](CC(C)C)C(=O)N[C@@H](CCC(=O)O)C(=O)N[C@@H](CCCCN)C(=O)N[C@@H](CCCCN)C(=O)N[C@@H](C)C(=O)N[C@@H](C)C(=O)N[C@@H](CCCCN)C(=O)N[C@@H](CCC(=O)O)C(=O)N[C@@H](Cc1ccccc1)C(=O)N[C@H](C(=O)N[C@@H](CCC(=O)O)C(=O)N[C@@H](Cc1c[nH]c2ccccc12)C(=O)N[C@@H](CC(C)C)C(=O)N[C@@H](CC(C)C)C(=O)N[C@@H](CO)C(=O)N[C@@H](C)C(N)=O)C(C)C [Compound 20] (HELM PEPTIDE1{Y.[Aib].Q.G.T.F.T.S.D.Y.S.I.Y.L.E.K.K.A.A.K.E.F.V.E.W.L.L.S.A.[am]}$$$$V2.0)	0.047 nM	0.009 nM	0.0094 nM	0.057 nM	–	–	–	–	–	–
CCCCCCCCCCCCCCCC(=O)N[C@@H](CCC(=O)NCCCC[C@H](NC(=O)[C@H](CO)NC(=O)[C@H](CC(=O)O)NC(=O)[C@H](CC(C)C)NC(=O)[C@H](Cc1ccc(O)cc1)NC(=O)[C@@H](NC(=O)[C@H](CO)NC(=O)[C@H](Cc1ccc(O)cc1)NC(=O)[C@H](CC(=O)O)NC(=O)[C@H](CO)NC(=O)[C@@H](NC(=O)[C@H](Cc1ccccc1)NC(=O)[C@@H](NC(=O)CNC(=O)[C@H](CCC(N)=O)NC(=O)C(C)(C)NC(=O)[C@@H](N)Cc1ccc(O)cc1)[C@@H](C)O)[C@@H](C)O)[C@@H](C)CC)C(=O)N[C@@H](C)C(=O)N[C@@H](C)C(=O)N[C@@H](Cc1c[nH]cn1)C(=O)N[C@@H](CC(=O)O)C(=O)N[C@@H](Cc1ccccc1)C(=O)N[C@H](C(=O)N[C@@H](CCC(=O)O)C(=O)N[C@@H](Cc1c[nH]c2ccccc12)C(=O)N[C@@H](CC(C)C)C(=O)N[C@@H](CC(C)C)C(=O)N[C@@H](CO)C(=O)N[C@@H](C)C(=O)NCC(=O)N1CCC[C@H]1C(=O)N[C@@H](CO)C(=O)N[C@@H](CO)C(=O)NCC(=O)N[C@@H](C)C(=O)N1CCC[C@H]1C(=O)N1CCC[C@H]1C(=O)N1CCC[C@H]1C(=O)N[C@@H](CO)C(N)=O)C(C)C)C(=O)O [Compound 29] (HELM PEPTIDE1{Y.[Aib].Q.G.T.F.T.S.D.Y.S.I.Y.L.D.S.K.A.A.H.D.F.V.E.W.L.L.S.A.G.P.S.S.G.A.P.P.P.S.[am]}|PEPTIDE2{[CCCCCCCCCCCCCCCC(=O)[*:2]].[gGlu]}$PEPTIDE1,PEPTIDE2,17:R3-2:R2$$$V2.0)	–	–	–	–	0.06 nM	0.05 nM	0.05 nM	0.15 nM	0.15 nM	–
CC(C)C[C@H](NC(=O)[C@H](CC(C)C)NC(=O)[C@H](Cc1c[nH]c2ccccc12)NC(=O)[C@H](CCC(=O)O)NC(=O)[C@@H](NC(=O)[C@H](Cc1ccccc1)NC(=O)[C@H](CC(=O)O)NC(=O)[C@H](Cc1c[nH]cn1)NC(=O)[C@H](C)NC(=O)[C@H](C)NC(=O)[C@H](CCCCN)NC(=O)[C@H](CO)NC(=O)[C@H](CC(=O)O)NC(=O)[C@H](CC(C)C)NC(=O)[C@H](Cc1ccc(O)cc1)NC(=O)[C@H](CCCCN)NC(=O)[C@H](CO)NC(=O)[C@H](Cc1ccc(O)cc1)NC(=O)[C@H](CC(=O)O)NC(=O)[C@H](CO)NC(=O)[C@@H](NC(=O)[C@H](Cc1ccccc1)NC(=O)[C@@H](NC(=O)CNC(=O)[C@H](CCC(N)=O)NC(=O)[C@H](CO)NC(=O)[C@@H](N)Cc1ccc(O)cc1)[C@@H](C)O)[C@@H](C)O)C(C)C)C(=O)N[C@@H](CCCNC(=N)N)C(=O)N[C@@H](C)C(N)=O [Compound 1] (H-YSQGTFTSDYSKYLDSKAAHDFVEWLLRA-NH2)	0.38 nM	0.033 nM	0.033 nM	0.013 nM	–	–	–	0.013 nM	–	–
CC[C@H](C)[C@H](NC(=O)[C@H](CO)NC(=O)[C@H](Cc1ccc(O)cc1)NC(=O)[C@H](CC(=O)O)NC(=O)[C@H](CO)NC(=O)[C@@H](NC(=O)[C@H](Cc1ccccc1)NC(=O)[C@@H](NC(=O)CNC(=O)[C@H](CCC(N)=O)NC(=O)C(C)(C)NC(=O)[C@@H](N)Cc1ccc(O)cc1)[C@@H](C)O)[C@@H](C)O)C(=O)N[C@@H](Cc1ccc(O)cc1)C(=O)N[C@@H](CC(C)C)C(=O)N[C@@H](CC(=O)O)C(=O)N[C@@H](CCCCN)C(=O)N[C@@H](CCCCNC(=O)CC[C@H](NC(=O)CCCCCCCCCCCCCCCCC(=O)O)C(=O)O)C(=O)N[C@@H](C)C(=O)N[C@@H](CCC(N)=O)C(=O)N[C@@H](CCCNC(=N)N)C(=O)N[C@@H](C)C(=O)N[C@@H](Cc1ccccc1)C(=O)N[C@H](C(=O)N[C@@H](CCC(=O)O)C(=O)N[C@@H](Cc1c[nH]c2ccccc12)C(=O)N[C@@H](CC(C)C)C(=O)N[C@@H](CC(C)C)C(=O)N[C@@H](C)C(=O)N[C@@H](CCC(N)=O)C(=O)NCC(=O)N1CCC[C@H]1C(=O)N[C@@H](CO)C(=O)N[C@@H](CO)C(=O)NCC(=O)N[C@@H](C)C(=O)N1CCC[C@H]1C(=O)N1CCC[C@H]1C(=O)N1CCC[C@H]1C(=O)N[C@@H](CO)C(N)=O)C(C)C [Compound 34] (HELM PEPTIDE1{Y.[Aib].Q.G.T.F.T.S.D.Y.S.I.Y.L.D.K.K.A.Q.R.A.F.V.E.W.L.L.A.Q.G.P.S.S.G.A.P.P.P.S.[am]}|PEPTIDE2{[O=C(O)CCCCCCCCCCCCCCCCC(=O)[*:2]].[gGlu]}$PEPTIDE1,PEPTIDE2,17:R3-2:R2$$$V2.0)	–	–	–	–	–	0.007 nM	0.0066 nM	–	–	0.11 nM
CC(C)C[C@H](NC(=O)[C@H](C)NC(=O)[C@H](CCCCN)NC(=O)[C@H](CO)NC(=O)[C@H](Cc1ccc(O)cc1)NC(=O)[C@H](CC(=O)O)NC(=O)[C@H](CO)NC(=O)[C@@H](NC(=O)[C@H](Cc1ccccc1)NC(=O)[C@@H](NC(=O)CNC(=O)[C@H](CCC(N)=O)NC(=O)C(C)(C)NC(=O)[C@@H](N)Cc1ccc(O)cc1)[C@@H](C)O)[C@@H](C)O)C(=O)N[C@@H](CC(=O)O)C(=O)N[C@@H](CO)C(=O)N[C@@H](CCCCN)C(=O)N[C@@H](C)C(=O)N[C@@H](C)C(=O)N[C@@H](Cc1c[nH]cn1)C(=O)N[C@@H](CC(=O)O)C(=O)N[C@@H](Cc1ccccc1)C(=O)N[C@H](C(=O)N[C@@H](CCC(=O)O)C(=O)N[C@@H](Cc1c[nH]c2ccccc12)C(=O)N[C@@H](CC(C)C)C(=O)N[C@@H](CC(C)C)C(=O)N[C@@H](CO)C(=O)N[C@@H](C)C(N)=O)C(C)C [Compound 7] (HELM PEPTIDE1{Y.[Aib].Q.G.T.F.T.S.D.Y.S.K.A.L.D.S.K.A.A.H.D.F.V.E.W.L.L.S.A.[am]}$$$$V2.0)	0.42 nM	–	0.031 nM	0.086 nM	–	–	–	–	–	–
CCCCCCCCCCCCCCCC(=O)N[C@@H](CCC(=O)NCCCC[C@H](NC(=O)[C@H](CO)NC(=O)[C@H](CC(=O)O)NC(=O)[C@H](CC(C)C)NC(=O)[C@H](Cc1ccc(O)cc1)NC(=O)[C@@H](NC(=O)[C@H](CO)NC(=O)[C@H](Cc1ccc(O)cc1)NC(=O)[C@H](CC(=O)O)NC(=O)[C@H](CO)NC(=O)[C@@H](NC(=O)[C@H](Cc1ccccc1)NC(=O)[C@@H](NC(=O)CNC(=O)[C@H](CCC(N)=O)NC(=O)C(C)(C)NC(=O)[C@@H](N)Cc1ccc(O)cc1)[C@@H](C)O)[C@@H](C)O)[C@@H](C)CC)C(=O)N[C@@H](C)C(=O)N[C@@H](C)C(=O)N[C@@H](Cc1c[nH]cn1)C(=O)N[C@@H](CC(=O)O)C(=O)N[C@@H](Cc1ccccc1)C(=O)N[C@H](C(=O)N[C@@H](CCC(=O)O)C(=O)N[C@@H](Cc1c[nH]c2ccccc12)C(=O)N[C@@H](CC(C)C)C(=O)N[C@@H](CC(C)C)C(=O)N[C@@H](CCCNC(=N)N)C(=O)N[C@@H](C)C(N)=O)C(C)C)C(=O)O [Compound 27] (HELM PEPTIDE1{Y.[Aib].Q.G.T.F.T.S.D.Y.S.I.Y.L.D.S.K.A.A.H.D.F.V.E.W.L.L.R.A.[am]}|PEPTIDE2{[CCCCCCCCCCCCCCCC(=O)[*:2]].[gGlu]}$PEPTIDE1,PEPTIDE2,17:R3-2:R2$$$V2.0)	–	–	0.16 nM	–	0.12 nM	0.16 nM	–	0.07 nM	0.07 nM	–
